Test results published in PMC9918900, “New Succinimide–Thiazolidinedione Hybrids as Multitarget Antidiabetic Agents: Design, Synthesis, Bioevaluation, and Molecular Modelling Studies” (Molecules, 2023).

Tests used:
[1] = system: streptozotocin-induced diabetic rats; assay: effect on body weight; type: in vivo, Wistar rats; conditions: for Change in Body Weight, After Treatment: 28 days
Protocol: (§1) The antidiabetic activity of the synthesized compound 10d was evaluated using a streptozotocin-induced diabetic rats model.
(§2) Male Wistar rats weighing 150 to 230 gm were used for the study which were housed in polyacrylic cages (no more than six animals per cage) with dimensions of 38 × 23 × 10 cm and maintained under standard laboratory conditions with a dark/light cycle of 14 h of dark and 10 h of light at a temperature of 25 °C. The animals were provided with a standard diet (dry pellet) and water ad libitum. Before the start of the experimental procedures, the rats were acclimatized to laboratory conditions for 10 days. All the experiments were approved and performed as per the guidelines of the Departmental Research Ethics Committee under letter No. DREC/050 [49].
(§3) Non-insulin-dependent diabetes mellitus was induced in fasted rats weighing 150–230 gm using a single dose of streptozotocin (STZ) at a dose of 60 mg/kg intraperitoneally after 15 min of the administration of nicotinamide at a 120 mg/kg dose i.p. Nicotinamide was prepared in normal saline while in citrate buffer (pH 4.5), STZ was prepared. After the induction of diabetes, the increase in the plasma glucose level was measured at 72 h and then measured on the 7th day to confirm hyperglycemia. For the diagnosis of diabetes, the threshold value of the fasting plasma glucose level was considered to be more than 126 mg/dl. For the study, only the animals with permanent NIIDM were utilized.
(§4) The animals were classified into 5 groups with 6 animals in each group (n = 6). Group I comprised of normal control rats which were daily administered drinking water only; group II served as diabetic control rats (disease group); group III served as the positive control and were administered 0.5 mg/kg of the standard drug glibenclamide; and group IV and V served as the test group rats and were administered the test compound 10d at 10 mg/kg and 20 mg/kg, respectively, for twenty-eight days. The fasting glucose concentration was measured on the 0, 7th, 14th, and 28th day of the administration of the extract. During the experimental tenure, the weights of the rats were determined daily and the mean change was recorded.

[2] = system: streptozotocin-induced diabetic rats; assay: liver and renal serum biomarkers; type: in vivo, Wistar rats; conditions: 28th day
Protocol: as §3, §4
(§5) The animals were euthanized (sacrificed) via cervical dislocation on the 28th day to observe the biochemical parameters. The parameters studied were triglyceride (TGL), cholesterol, low-density lipoprotein, and high-density lipoprotein (LDL and HDL). The Minias Globe Diagnostic kits were used for cholesterol and TGL. Semi-autoanalyzers were used for the analysis. The serum samples from the rats were also checked for alanine aminotransferase (ALT), aspartate aminotransferase (AST), lactate dehydrogenase (LDH), serum alkaline phosphatase (ALP), and creatinine and urea levels utilizing commercially available kits of Crest Biosystems. The statistical analysis was also performed as per the previous procedure.

α-amylase = target: T1, α-amylase (Homo sapiens, UniProt P04746); assay: in vitro α-amylase inhibitory activity; type: biochemical
T1 sequence (P04746 16-511): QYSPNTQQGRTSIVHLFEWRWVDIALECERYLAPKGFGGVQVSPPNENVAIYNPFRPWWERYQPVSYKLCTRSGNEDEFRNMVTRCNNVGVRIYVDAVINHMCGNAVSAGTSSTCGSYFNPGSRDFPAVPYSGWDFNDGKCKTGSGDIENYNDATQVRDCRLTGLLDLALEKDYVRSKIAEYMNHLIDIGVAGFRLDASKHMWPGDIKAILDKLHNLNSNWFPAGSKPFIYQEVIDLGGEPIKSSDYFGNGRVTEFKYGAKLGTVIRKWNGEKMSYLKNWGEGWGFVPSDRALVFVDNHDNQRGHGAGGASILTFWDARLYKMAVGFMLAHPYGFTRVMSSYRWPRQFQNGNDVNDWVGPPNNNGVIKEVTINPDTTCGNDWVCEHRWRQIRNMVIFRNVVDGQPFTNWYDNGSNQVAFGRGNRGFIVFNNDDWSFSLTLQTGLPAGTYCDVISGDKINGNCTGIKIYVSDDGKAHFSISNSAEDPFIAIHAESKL
Protocol: The test samples were added in alpha-amylase solution. The enzyme solution was prepared with enzyme and buffer solution. The mixture of the samples and enzyme was then incubated. Then, starch and dinitrosalicylic acid solution was added. The same was performed for both test compounds and the standard drug. […] The percent alpha-amylase inhibition activity and its IC50 values were calculated and confirmed as per the previous procedure.

[3] = system: streptozotocin-induced diabetic rats; assay: in vivo antidiabetic activity, fasting plasma glucose level; set-up: species or system Wistar rats; conditions: STZ-induced diabetic rats, 28th day
Protocol: as §1, §2, §3
The animals were classified into 5 groups with 6 animals in each group (n = 6). […] The fasting glucose concentration was measured on the 0, 7th, 14th, and 28th day of the administration of the extract. During the experimental tenure, the weights of the rats were determined daily and the mean change was recorded.

[4] = system: streptozotocin-induced diabetic rats; assay: effect on serum lipid profile of diabetic animals; type: in vivo, Wistar rats; conditions: compared to diabetic control group
Protocol: as §1, §2, §3, §4, §5

[5] = system: streptozotocin-induced diabetic rats; assay: serum insulin level estimation; type: in vivo, Wistar rats; set-up: unit not given here; conditions: for Insulin Level (Mean ±SEM), Final Reading: 28th day
Protocol: as §3, §4
After the 28th day of treatment with the test compound 10d, the blood samples were taken for the determination of the insulin levels, which were measured with the help of GLAZYME INSULIN-EIA TEST.

Q: What does the source list for CC(C)(C=C1SC(=O)N(C(=O)CN2CCOCC2)C1=O)C1CC(=O)N(Cc2ccccc2)C1=O (stereo not shown) [10d]?
A: Change in Body Weight, After Induction ([1]; 10mg (10 mg/kg) group): 154.22 ± 3.62 gm; Change in Body Weight, Before Induction ([1]; 10mg (10 mg/kg) group): 191.23 ± 1.50 ^ns gm; Change in Body Weight, After Treatment ([1]; 10mg (10 mg/kg) group): 182.43 ± 5.76 gm; Change in Body Weight, After Induction ([1]; 20mg (20 mg/kg) group): 171.60 ± 1.90 ^ns gm; Change in Body Weight, Before Induction ([1]; 20mg (20 mg/kg) group): 204.66 ± 3.60 gm; Change in Body Weight, After Treatment ([1]; 20mg (20 mg/kg) group): 198.19 ± 4.66 gm; ALP ([2]; 10mg (10 mg/kg)): 184.43 ± 3.83 U/L; ALT ([2]; 10mg (10 mg/kg)): 136.80 ± 2.15 U/L; AST ([2]; 10mg (10 mg/kg)): 123.40 ± 3.70 U/L; Creatinine ([2]; 10mg (10 mg/kg)): 0.51 ± 0.57 ^ns mg/dl; LDH ([2]; 10mg (10 mg/kg)): 930.11 ± 4.26 U/L; Urea ([2]; 10mg (10 mg/kg)): 75.26 ± 2.44 mg/dL; ALP ([2]; 20mg (20 mg/kg)): 122.80 ± 2.00 U/L; ALT ([2]; 20mg (20 mg/kg)): 60.42 ± 2.20 U/L; AST ([2]; 20mg (20 mg/kg)): 94.32 ± 2.30 U/L; Creatinine ([2]; 20mg (20 mg/kg)): 0.42 ± 0.31 ^ns mg/dl; LDH ([2]; 20mg (20 mg/kg)): 850.53 ± 4.41 U/L; Urea ([2]; 20mg (20 mg/kg)): 51.53 ± 2.23 mg/dL; IC50 (α-amylase): 12 µM; inhibition at 31.25 µM (α-amylase; 31.25 µM, read-out: % α-Amylase Inhibition (converted)): 68.6%; inhibition at 62.5 µM (α-amylase; 62.5 µM, read-out: % α-Amylase Inhibition (converted)): 70%; inhibition at 125 µM (α-amylase; 125 µM, read-out: % α-Amylase Inhibition (converted)): 72.7%; inhibition at 250 µM (α-amylase; 250 µM, read-out: % α-Amylase Inhibition (converted)): 76.3%; inhibition at 500 µM (α-amylase; 500 µM, read-out: % α-Amylase Inhibition): 82.3 ± 1.2%; blood glucose level ([3]; 10 mg/kg): 93.15 mg/dL; blood glucose level ([3]; 20 mg/kg): 70.60 mg/dL; HDL level [4]: greater than before; LDL in serum [4]: significant decline; total cholesterol level in serum [4]: significant decline; triglyceride in serum [4]: significant decline; Insulin Level (Mean ±SEM), Initial Reading ([5]; 10mg (10 mg/kg) group): 0.81 ± 0.25; Insulin Level (Mean ±SEM), Final Reading ([5]; 10mg (10 mg/kg) group): 0.65 ± 0.57; Insulin Level (Mean ±SEM), Initial Reading ([5]; 20mg (20 mg/kg) group): 0.76 ± 0.38; Insulin Level (Mean ±SEM), Final Reading ([5]; 20mg (20 mg/kg) group): 0.76 ± 0.81
